Measurements published in patent US9061030B2, “sGC stimulators” (IRONWOOD PHARMACEUTICALS, INC., priority 2010, dated 2015).

Test system: Thoracic aortic rings
Assay: Thoracic aortic rings assay
Parameters: species or system rat
Settings: for inhibition at 1 µM: 1 μM compound, read-out: Percent Relaxation at 1 μM; for inhibition at 1 µM / inhibition at 3 µM / inhibition at 10 µM: rat thoracic aortic rings contracted with 100 ng/mL phenylephrine; for inhibition at 3 µM: 3 μM compound, read-out: Percent Relaxation at 3 μM; for inhibition at 10 µM: 10 μM compound, read-out: Percent Relaxation at 10 μM; for EC50: relaxation of rat thoracic aortic rings contracted with 100 ng/mL phenylephrine, read-out: Aortic Ring EC50
Procedure: Thoracic aortic rings were dissected from anesthetized (isoflurane) male Sprague-Dawley rats weighing 275-299 g. Tissues were immediately transferred to ice-cold Krebs-Henseleit solution, which had been aerated with 95% O2 and 5% CO2 for 30 minutes. Following removal of connective tissue, aortic sections were cut into 4 rings (˜2 mm each) and suspended on 2 L-shaped hooks, with one hook fixed at the bottom of the tissue bath (Schuler Organ Bath, Harvard Apparatus) and the other connected to a force transducer (F30 Force Transducer, Harvard Apparatus). Baths contained Krebs Henseleit solution (10 mL) heated to 37° C. and aerated with 95% O2 and 5% CO2. Rings were brought to an initial tension of 0.3-0.5 g and gradually raised to a resting tension of 1.0 g over 60 minutes. Rings were rinsed with Krebs Henseleit solution (heated to 37° C. and aerated with 95% 02 and 5% CO2) at 15 minute intervals until a stable baseline was obtained. Rings were considered to be stable after a resting tension of 1.0 g was maintained (for approximately 10 minutes) without need for adjustment. Rings were then contracted with 100 ng/mL phenylephrine by adding 100 μL of a 10 μg/mL phenylephrine stock solution. Tissues achieving a stable contraction were then treated in a cumulative, dose dependent manner with test compounds prepared in dimethylsulfoxide (DMSO). In some cases, tissues were rinsed three times over a 5 minute period with Krebs-Heinseleit's solution (heated to 37° C. and aerated with 95% 02 and 5% CO2), allowed to stabilize at baseline, and then used for characterization of other test articles or DMSO effects. All data were collected using the HSE-ACAD software provided by Harvard Apparatus. Percent relaxation effects were calculated in Microsoft Excel using the recorded tension value of 100 ng/mL phenylephrine treatment as 0% inhibition and, after washing the tissue with buffer, the original resting tension of tissue is used as 100% inhibition. EC50 values were calculated from concentration-response curves generated with GraphPad Prism Software.
The biological data for some of the compounds of Formula IA and Formula IB, in comparison with the prior art compound, BAY 41-2272, as the reference compound, determined by the thoracic aorta ring assay are presented in Table 6 below.

Compound | EC50 [nM] | inhibition at 1 µM [%] | inhibition at 3 µM [%] | inhibition at 10 µM [%]
Fc1ccccc1Cn1nc(-c2ccccn2)nc1-c1ccccn1 [Compound I-1] | 1000 to 2000 | 20 to 40 | 60 to 80 | 100 to 120
Fc1ccccc1Cn1nc(-c2ncccn2)nc1-c1nccs1 [Compound I-30] | 2000 to 3000 | 20 to 40 | 60 to 80 | 100 to 120
Fc1ccc(-c2nc(-c3nccs3)n(Cc3ccccc3F)n2)nc1 [Compound I-38] | 1000 to 2000 | 40 to 60 | 80 to 100 | 100 to 120
Fc1ccccc1Cn1nc(-c2ncccn2)nc1-c1cocn1 [Compound I-46] | 2000 to 3000 | 20 to 40 | 60 to 80 | 80 to 100
Nc1ccnc(-c2nc(-c3nccs3)n(Cc3ccccc3F)n2)n1 [Compound I-48, 2-(1-(2-fluorobenzyl)-5-(thiazol-2-yl)-1H-1,2,4-triazol-3-yl)pyrimidin-4-amine] | 1000 to 2000 | 40 to 60 | 80 to 100 | 100 to 120
Fc1ccccc1Cn1nc(-c2ccccn2)nc1-n1cncn1 [Compound I-50, 2′-(2-fluorobenzyl)-5′-(pyridin-2-yl)-2′H-1,3′-bi(1′,2′,4-triazole)] | – | 10 to 20 | 20 to 40 | 60 to 80
COC(=O)N(C)c1c(N)nc(-c2nc(-c3nccs3)n(Cc3ccccc3F)n2)nc1N [Compound I-61, methyl 4,6-diamino-2-(1-(2-fluorobenzyl)-5-(thiazol-2-yl)-1H-1,2,4-triazol-3-yl)pyrimidin-5-yl(methyl)carbamate] | < 1000 | 60 to 80 | 80 to 100 | –

Continued, in another order:

EC50 [nM] | Compound | inhibition at 1 µM [%] | inhibition at 3 µM [%] | inhibition at 10 µM [%]
1000 to 2000 | Fc1ccccc1Cn1nc(-c2ncccn2)nc1-c1cscn1 [Compound I-3] | 40 to 60 | 80 to 100 | 100 to 120
< 1000 | Fc1ccccc1Cn1nc(-c2ccccn2)nc1-c1cscn1 [Compound I-4] | 60 to 80 | 100 to 120 | –
1000 to 2000 | Fc1ccccc1Cn1nc(-c2ccccn2)nc1-c1ncco1 [Compound I-6] | 20 to 40 | 60 to 80 | 100 to 120
< 1000 | Fc1ccccc1Cn1nc(-c2ccccn2)nc1-c1cocn1 [Compound I-12, 4-(1-(2-fluorobenzyl)-3-(pyridin-2-yl)-1H-1,2,4-triazol-5-yl)oxazole] | 40 to 60 | 80 to 100 | 100 to 120
< 1000 | Fc1ccccc1Cn1nc(-c2ccccn2)nc1-c1nccs1 [Compound I-25] | 40 to 60 | 80 to 100 | 100 to 120
1000 to 2000 | Fc1ccccc1Cn1nc(-c2cscn2)nc1-c1nccs1 [Compound I-40] | 20 to 40 | 60 to 80 | 100 to 120
< 1000 | Fc1ccccc1Cn1nc(-c2nccs2)nc1-c1cscn1 [Compound I-41] | 80 to 100 | 100 to 120 | 100 to 120
< 1000 | Nc1ccnc(-c2nc(-c3nccs3)n(Cc3ccccc3F)n2)c1 [Compound I-44] | 80 to 100 | 100 to 120 | 100 to 120
1000 to 2000 | Nc1ccnc(-c2nc(-c3cscn3)n(Cc3ccccc3F)n2)c1 [Compound I-53, 2-(1-(2-fluorobenzyl)-5-(thiazol-4-yl)-1H-1,2,4-triazol-3-yl)pyridin-4-amine] | 20 to 40 | 80 to 100 | 100 to 120
